According to patent US20050096360A1, “Inhibitors of semicarbazide-sensitive amine oxidase (SSAO) and VAP-1 mediated adhesion useful for treatment of diseases” (priority 2003, published 2005):
Where a name gives a salt, the structure may show the parent alone. Read-outs that look alike come from different tables or passages of the source.

How the values were obtained:
[1] = biological target: T1, SSAO (bovine plasma amine oxidase, PAO) (Bos taurus, UniProt Q29437); experiment: In vitro inhibition of SSAO activity, coupled colorimetric method; format: biochemical; conditions: 30 min preincubation, benzylamine substrate; read-out: SSAO Inhibitory Activity IC50
T1 construct: Bovine plasma amine oxidase (PAO) was purchased from Worthington Biochemical; purchased Worthington Biochemical (Lakewood, N.J.)
T1 sequence (Q29437 17-762): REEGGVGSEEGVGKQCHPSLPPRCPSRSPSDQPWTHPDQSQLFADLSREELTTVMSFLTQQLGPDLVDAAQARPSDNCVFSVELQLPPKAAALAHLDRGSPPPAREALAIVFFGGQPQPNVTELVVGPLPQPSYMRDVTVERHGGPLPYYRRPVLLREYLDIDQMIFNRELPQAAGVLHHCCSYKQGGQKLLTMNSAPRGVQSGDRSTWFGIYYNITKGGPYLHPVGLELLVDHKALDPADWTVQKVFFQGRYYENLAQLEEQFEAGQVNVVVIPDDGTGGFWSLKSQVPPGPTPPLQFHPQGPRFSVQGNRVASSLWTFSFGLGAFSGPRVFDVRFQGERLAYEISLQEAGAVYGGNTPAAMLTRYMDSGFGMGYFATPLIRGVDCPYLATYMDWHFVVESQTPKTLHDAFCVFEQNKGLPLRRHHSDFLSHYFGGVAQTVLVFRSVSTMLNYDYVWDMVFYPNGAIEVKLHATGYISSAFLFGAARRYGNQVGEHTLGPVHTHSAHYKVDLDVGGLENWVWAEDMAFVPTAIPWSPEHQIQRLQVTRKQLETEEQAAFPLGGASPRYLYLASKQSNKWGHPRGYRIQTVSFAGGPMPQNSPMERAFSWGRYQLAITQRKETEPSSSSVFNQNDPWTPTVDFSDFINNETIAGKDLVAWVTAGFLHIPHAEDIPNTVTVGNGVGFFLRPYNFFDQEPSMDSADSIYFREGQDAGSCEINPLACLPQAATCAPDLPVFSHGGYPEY
Procedure: SSAO activity was measured using the coupled colorimetric method essentially as described for monoamine oxidase and related enzymes (Holt A. et al. (1997) Anal. Biochem. 244:384). Bovine plasma amine oxidase (PAO) was purchased from Worthington Biochemical (Lakewood, N.J.) and used as a source of SSAO for activity measurements. The SSAO assay was performed in 96 well microtitre plates as follows. A pre-determined amount of inhibitor diluted in 0.2 M potassium phosphate buffer, pH 7.6, was added to each well, if required. The amount of inhibitor varied in each assay but was generally at a final concentration of between 10 nM and 10 μM. Controls lacked inhibitor. In order to study the effects of potential inhibitors 50 μl of inhibitor solution were preincubated for 30 min at 37° C. with 0.4 mU of PAO in an a total volume of 130 μl of 0.2 M potassium phosphate buffer pH 7.6. Assays were then started by addition of 20 μl 10 mM benzylamine substrate and incubated for 20 min at 37° C. The following reagents were then added to a final reaction volume of 200 μl, 50 μl of freshly made chromogenic solution containing […] vanillic acid (Sigma # V-2250), […] 4-aminoantipyrine (Sigma # A-4328) and 12 U/ml horseradish peroxidase (Sigma # P-8250) in order to cause a change of 0.5 OD A490 per hour. This was within the linear response range of the assay. The plates were incubated for 1 hr at 37° C. and the increase in absorbance, reflecting SSAO activity, was measured at 490 nm using a microplate spectrophotometer (Power Wave 40, Bio-Tek Inst.). Inhibition was presented as percent inhibition compared to control after correcting for background absorbance and IC50 values calculated using GraphPad Prism software.

recombinant human MAO-A = biological target: T2, recombinant human MAO-A (Homo sapiens, UniProt P21397); experiment: Inhibition of MAO-A activity, colorimetric; format: biochemical; conditions: for Specificity for SSAO vs. MAO-A: ratio IC50 MAO-A to IC50 SSAO
T2 construct: purchased BD Biosciences (MA, USA)
T2 sequence (P21397 1-527): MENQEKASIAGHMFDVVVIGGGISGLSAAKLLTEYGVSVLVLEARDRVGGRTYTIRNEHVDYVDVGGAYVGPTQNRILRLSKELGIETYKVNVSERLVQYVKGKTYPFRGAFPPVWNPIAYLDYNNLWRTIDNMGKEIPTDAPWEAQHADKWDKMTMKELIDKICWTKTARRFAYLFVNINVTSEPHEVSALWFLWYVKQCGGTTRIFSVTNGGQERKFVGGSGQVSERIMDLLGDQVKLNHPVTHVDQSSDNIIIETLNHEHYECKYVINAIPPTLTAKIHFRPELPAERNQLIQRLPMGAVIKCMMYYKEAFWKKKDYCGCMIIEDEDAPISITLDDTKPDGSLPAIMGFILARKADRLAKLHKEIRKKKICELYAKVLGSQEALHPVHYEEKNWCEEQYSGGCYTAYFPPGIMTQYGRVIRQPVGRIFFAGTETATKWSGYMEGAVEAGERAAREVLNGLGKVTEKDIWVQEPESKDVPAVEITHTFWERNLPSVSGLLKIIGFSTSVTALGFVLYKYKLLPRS
Procedure: The specificity of the different SSAO inhibitors was tested by determining their ability to inhibit MAO-A and MAO-B activities in vitro. Recombinant human MAO-A and human MAO-B enzymes were obtained from BD Biosciences (MA, USA). […] A pre-determined amount of inhibitor diluted in 0.2 M potassium phosphate buffer, pH 7.6, was added to each well, if required. […] Controls lacked inhibitor. The following agents were then added to a final reaction volume of 200 μl in 0.2 M potassium phosphate buffer, pH 7.6: 0.04 mg/ml of MAO-A or 0.07 mg/ml MAO-B enzyme, 15 μl of 10 mM tyramine substrate (for MAO-A), or 15 μl 100 mM benzylamine substrate (for MAO-B), and 50 μl of freshly made chromogenic solution (as above). The plates were incubated for 60 min at 37° C. The increase in absorbance, reflecting MAO activity, was measured at 490 nm using microplate spectrophotometer (Power Wave 40, Bio-Tek Inst.). Inhibition was presented as percent inhibition compared to control after correcting for background absorbance and IC50 values calculated using GraphPad Prism software.

[2] = tyramine substrate, no pre-incubation, read-out: MAO-A Inhibitory Activity IC50

SMILES | IC50 [1] [nM] | IC50 (recombinant human MAO-A) [nM] | Specificity for SSAO vs. MAO-A (recombinant human MAO-A) | IC50 (recombinant human MAO-A; [2]) [nM]
C=C(CNN)c1ccccc1 [Example 2, Hydrochloride] | 35 | 225000 | 6,400 | –
C=C(CNN)c1ccc(F)cc1.Cl [Example 8, N-[2-(4′-fluorophenyl)-allyl]-hydrazine Hydrochloride] | 32 | – | 69 | 2200
Cl.NNC/C(=C/F)c1ccccc1 [Example 10, (E)-1-fluoro-2-phenyl-3-hydrazinopropene Hydrochloride] | 65 | – | 43 | 2800
